Test results published in US11344546B2, “Benzamide compounds” (Recurium IP Holdings, LLC, priority 2018, dated 2022).

What was measured:
NCI-H1963 cells = assay: NCI-H1963 cell proliferation assay (CellTiter-Glo); assay type: cell-based; conditions: Homo sapiens, 72 h compound treatment, read-out: H1963 (nM) CTG IC50
Procedure: (§1) Cell proliferation was measured using the CellTiter-Glo@ Luminescent Cell Viability Assay. The assay involved the addition of a single reagent (CellTiter-Glo® Reagent) directly to cells cultured in serum-supplemented medium. RS4;11 (ATC, CRL-1873) cells were cultured according to ATCC recommendations and were seeded at 50,000 cells per well. NCI-H1963 cells (ATCC CRL-5982) were cultured according to ATCC recommendations and seeded at 12,000 cells per well.
(§2) Each compound evaluated was prepared as a DMSO stock solution (10 mM). Compounds were tested in duplicate on each plate, with a 10-point serial dilution curve (1:3 dilution). Compound treatment (1.0 μL) was added from the compound dilution plate to the cell plate. The highest compound concentration was 10 μM (final), with a 0.1% final DMSO concentration. Plates were then incubated at 37° C., 5% CO2. After 48 h of compound treatment for RS4;11 or 72 h for NCI-H1963, cell plates were equilibrated at rt for approximately 30 mins. An equi-volume amount of CellTiter-Glo@ Reagent (40 μL) was added to each well. Plates were mixed for 2 mins on an orbital shaker to induce cell lysis and then incubated at RT for 10 mins to stabilize the luminescent signal. Luminescence was recorded using a Envision plate reader according to CellTiter-Glo protocol. IC50 of each compound was calculated using GraphPad Prism by nonlinear regression analysis.

RS4;11 cells = assay: RS4;11 cell proliferation assay (CellTiter-Glo); assay type: cell-based; conditions: Homo sapiens, 48 h compound treatment, read-out: RS4;11 (nM) CTG IC50
Procedure: as §1, §2

Row | SMILES | IC50 (NCI-H1963 cells) [nM] | IC50 (RS4;11 cells) [nM]
1 | CC1(C)CCC(C23CC(C(F)F)(C2)C3)=C(CN2CCN(c3ccc(C(=O)NS(=O)(=O)c4ccc(N[C@H](CCN5CCC(O)CC5)CSc5ccccc5)c(S(=O)(=O)C(F)(F)F)c4)cc3)CC2)C1 [Example 65, (R)-4-(4-((2-(3-(difluoromethyl)bicyclo[1.1.1]pentan-1-yl)-5,5-dimethylcyclohex-1-en-1-yl)methyl)piperazin-1-yl)-N-((4-((4-(4-hydroxypiperidin-1-yl)-1-(phenylthio)butan-2-yl)amino)-3-((trifluoromethyl)sulfonyl)phenyl)sulfonyl)benzamide] | 500 to 1000 | –
2 | CCC12CC(C3=C(CN4CCN(c5ccc(C(=O)NS(=O)(=O)c6ccc(N[C@H](CCN7CCOCC7)CSc7ccccc7)c([N+](=O)[O-])c6)cc5)CC4)CCC(C)(C)C3)(C1)C2 [Example 57, (R)-4-(4-((2-(3-ethylbicyclo[1.1.1]pentan-1-yl)-4,4-dimethylcyclohex-1-en-1-yl)methyl)piperazin-1-yl)-N-((4-((4-morpholino-1-(phenylthio)butan-2-yl)amino)-3-nitrophenyl)sulfonyl)benzamide] | > 1000 | > 1000
3 | CC1(C)CCC(CN2CCN(c3ccc(C(=O)NS(=O)(=O)c4ccc(N[C@H](CCN5CCC(O)CC5)CSc5ccccc5)c(S(=O)(=O)C(F)(F)F)c4)cc3)CC2)=C(C23CC(C)(C2)C3)C1 [Example 68, (R)-4-(4-((4,4-dimethyl-2-(3-methylbicyclo[1.1.1]pentan-1-yl)cyclohex-1-en-1-yl)methyl)piperazin-1-yl)-N-((4-((4-(4-hydroxypiperidin-1-yl)-1-(phenylthio)butan-2-yl)amino)-3-((trifluoromethyl)sulfonyl)phenyl)sulfonyl)benzamide] | ≤ 500 | 100 to 1000
4 | CC1(C)CCC(CN2CCN(c3ccc(C(=O)NS(=O)(=O)c4ccc(N[C@H](CCN5CCOCC5)CSc5ccccc5)c([N+](=O)[O-])c4)cc3)CC2)=C(C23CC(C)(C2)C3)C1 [Example 56, (R)-4-(4-((4,4-dimethyl-2-(3-methylbicyclo[1.1.1]pentan-1-yl)cyclohex-1-en-1-yl)methyl)piperazin-1-yl)-N-((4-((4-morpholino-1-(phenylthio)butan-2-yl)amino)-3-nitrophenyl)sulfonyl)benzamide] | 500 to 1000 | > 1000
5 | CC1(C)CCC(c2ccc(Cl)cc2)=C(CN2CCN(c3ccc(C(=O)NS(=O)(=O)c4ccc(N[C@H](CCN5CCOCC5)CSc5ccccc5)c(S(=O)(=O)C(F)(F)F)c4)cc3)CC2)C1 [ABT-263, reference compound] | ≤ 500 | < 100
6 | CC1(C)CCC(CN2CCN(c3ccc(C(=O)NS(=O)(=O)c4ccc(N[C@H](CCN5CCC(O)C5)CSc5ccccc5)c(S(=O)(=O)C(F)(F)F)c4)cc3)CC2)=C(C23CC(C(F)F)(C2)C3)C1 (stereo partly drawn) [Example 71] | 500 to 1000 | –
7 | CC1(C)CCC(CN2CCN(c3ccc(C(=O)NS(=O)(=O)c4ccc(OCC5CCOCC5)c([N+](=O)[O-])c4)c(Oc4cnc5[nH]ccc5c4)c3)CC2)=C(C23CC(C)(C2)C3)C1 [Example 22, 2-(1H-pyrrolo[2,3-b]pyridin-5-yloxy)-4-(4-((4,4-dimethyl-2-(3-methylbicyclo[1.1.1]pentan-1-yl)cyclohex-1-enyl)methyl)piperazin-1-yl)-N-(3-nitro-4-((tetrahydro-2H-pyran-4-yl)methoxy)phenylsulfonyl)benzamide] | – | < 100
8 | CC1(C)CCC(CN2CCN(c3ccc(C(=O)NS(=O)(=O)c4ccc(NCC5CCOCC5)c([N+](=O)[O-])c4)c(Oc4cnc5[nH]ccc5c4)c3)CC2)=C(c2ccc(Cl)cc2)C1 [ABT-199, reference compound] | > 1000 | < 100
9 | CC1(C)CCC(CN2CCN(c3ccc(C(=O)NS(=O)(=O)c4ccc(N[C@H](CCN5CCOCC5)CSc5ccccc5)c(S(=O)(=O)C(F)(F)F)c4)cc3)CC2)=C(C23CC(C(F)(F)F)(C2)C3)C1 [Example 54, (R)-4-(4-((4,4-dimethyl-2-(3-(trifluoromethyl)bicyclo[1.1.1]pentan-1-yl)cyclohex-1-en-1-yl)methyl)piperazin-1-yl)-N-((4-((4-morpholino-1-(phenylthio)butan-2-yl)amino)-3-((trifluoromethyl)sulfonyl)phenyl)sulfonyl)benzamide] | – | > 1000
10 | CC12CC(C3=C(CN4CCN(c5ccc(C(=O)NS(=O)(=O)c6ccc(NCC7(F)CCOCC7)c([N+](=O)[O-])c6)c(Oc6cnc7[nH]ccc7c6)c5)CC4)CCC4(CCC4)C3)(C1)C2 [Example 43, 2-((1H-pyrrolo[2,3-b]pyridin-5-yl)oxy)-N-((4-(((4-fluorotetrahydro-2H-pyran-4-yl)methyl)amino)-3-nitrophenyl)sulfonyl)-4-(4-((6-(3-methylbicyclo[1.1.1]pentan-1-yl)spiro[3.5]non-6-en-7-yl)methyl)piperazin-1-yl)benzamide] | – | 100 to 1000
11 | CC1(C)CCC(CN2CCN(c3ccc(C(=O)NS(=O)(=O)c4ccc(NCCN5CC6(CCOCC6)C5)c([N+](=O)[O-])c4)c(Oc4cnc5[nH]ccc5c4)c3)CC2)=C(C23CC(Cl)(C2)C3)C1 [Example 4, 2-(1H-pyrrolo[2,3-b]pyridin-5-yloxy)-N-(4-(2-(7-oxa-2-azaspiro[3.5]nonan-2-yl)ethylamino)-3-nitrophenylsulfonyl)-4-(4-((2-(3-chlorobicyclo[1.1.1]pentan-1-yl)-4,4-dimethylcyclohex-1-enyl)methyl)piperazin-1-yl)benzamide] | – | 100 to 1000
12 | CCC12CC(C3=C(CN4CCN(c5ccc(C(=O)NS(=O)(=O)c6ccc(N[C@H](CCN7CCOCC7)CSc7ccccc7)c(S(=O)(=O)C(F)(F)F)c6)cc5)CC4)CCC(C)(C)C3)(C1)C2 [Example 53, (R)-4-(4-((2-(3-Ethylbicyclo[1.1.1]pentan-1-yl)-4,4-dimethylcyclohex-1-en-1-yl)methyl)piperazin-1-yl)-N-((4-((4-morpholino-1-(phenylthio)butan-2-yl)amino)-3-((trifluoromethyl)sulfonyl)phenyl)sulfonyl)benzamide] | – | > 1000
13 | CC1(C)CCC(CN2CCN(c3ccc(C(=O)NS(=O)(=O)c4ccc(OCC5CC6(COC6)C5)c([N+](=O)[O-])c4)c(Oc4cnc5[nH]ccc5c4)c3)CC2)=C(C23CC(Cl)(C2)C3)C1 [Example 8, 2-(1H-pyrrolo[2,3-b]pyridin-5-yloxy)-N-(4-(2-oxaspiro[3.3]heptan-6-ylmethoxy)-3-nitrophenylsulfonyl)-4-(4-((2-(3-chlorobicyclo[1.1.1]pentan-1-yl)-4,4-dimethylcyclohex-1-enyl)methyl)piperazin-1-yl)benzamide] | – | 100 to 1000
